Broadly, the EC50 is the concentration that produces a half-maximal response. What is called IC50 is the concentration needed to halve the response being measured. As a reminder, the AC50 is the midpoint of the concentration-response curve, whichever way the signal moves. The CC50 is the concentration at which the toxic effect on the cells reaches its halfway point.

The target of assay [1] is T1, RNA-binding protein pos-1 (Caenorhabditis elegans, UniProt G5EF15).
T1 sequence (G5EF15 whole entry): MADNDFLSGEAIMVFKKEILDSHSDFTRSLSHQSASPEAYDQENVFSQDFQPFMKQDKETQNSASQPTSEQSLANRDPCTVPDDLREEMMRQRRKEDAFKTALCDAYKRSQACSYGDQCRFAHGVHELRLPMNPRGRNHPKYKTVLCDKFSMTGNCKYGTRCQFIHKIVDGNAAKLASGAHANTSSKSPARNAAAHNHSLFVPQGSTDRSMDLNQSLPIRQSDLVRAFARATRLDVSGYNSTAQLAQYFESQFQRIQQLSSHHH
In words: inhibitors of POS-1/mex-3 RNA binding, dose response, biochemical, fluorescence polarization (AID 1964).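 Note: purified POS-1 fused to maltose binding protein made in E. coli; potency of compounds blocking POS-1 binding to fluorescent RNA.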

In assay [2] the target is T2, Zinc finger protein mex-5 (Caenorhabditis elegans, UniProt Q9XUB2).
T2 sequence (Q9XUB2 whole entry): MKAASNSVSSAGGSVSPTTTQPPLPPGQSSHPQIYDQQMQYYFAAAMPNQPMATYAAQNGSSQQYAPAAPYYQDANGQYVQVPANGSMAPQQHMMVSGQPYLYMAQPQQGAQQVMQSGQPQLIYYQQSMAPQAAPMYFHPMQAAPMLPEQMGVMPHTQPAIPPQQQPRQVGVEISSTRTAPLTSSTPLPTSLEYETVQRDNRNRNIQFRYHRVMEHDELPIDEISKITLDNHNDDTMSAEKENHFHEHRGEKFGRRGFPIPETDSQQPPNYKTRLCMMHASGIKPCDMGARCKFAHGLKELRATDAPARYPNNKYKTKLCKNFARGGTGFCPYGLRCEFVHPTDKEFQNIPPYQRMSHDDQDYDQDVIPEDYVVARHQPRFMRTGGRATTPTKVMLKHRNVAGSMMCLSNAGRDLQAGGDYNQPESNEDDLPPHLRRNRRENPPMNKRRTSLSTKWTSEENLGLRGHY
Kind of assay: MEX-5/TCR-2 RNA interaction inhibitors, dose response, biochemical, C. elegans, fluorescence polarization (AID 1960). For orientation: In fluorescence polarisation assays a small probe gives low polarisation when free and higher when bound to something large.

The target in assay [3] is Beta-lactamase (Pseudomonas aeruginosa, UniProt Q79MP6).
Chain of Beta-lactamase (Pseudomonas aeruginosa, UniProt Q79MP6) (Q79MP6 whole entry): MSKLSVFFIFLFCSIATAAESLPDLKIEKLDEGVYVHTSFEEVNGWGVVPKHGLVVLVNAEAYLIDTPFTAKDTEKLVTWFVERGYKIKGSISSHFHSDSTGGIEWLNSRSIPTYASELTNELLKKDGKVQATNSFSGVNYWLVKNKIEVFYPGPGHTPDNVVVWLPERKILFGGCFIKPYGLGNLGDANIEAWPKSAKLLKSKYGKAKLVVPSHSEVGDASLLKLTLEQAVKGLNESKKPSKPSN
The target of assay [4] is Beta-lactamase (Salmonella choleraesuis (strain SC-B67), UniProt Q5J463).
Chain of Beta-lactamase (Salmonella choleraesuis (strain SC-B67), UniProt Q5J463) (Q5J463 whole entry): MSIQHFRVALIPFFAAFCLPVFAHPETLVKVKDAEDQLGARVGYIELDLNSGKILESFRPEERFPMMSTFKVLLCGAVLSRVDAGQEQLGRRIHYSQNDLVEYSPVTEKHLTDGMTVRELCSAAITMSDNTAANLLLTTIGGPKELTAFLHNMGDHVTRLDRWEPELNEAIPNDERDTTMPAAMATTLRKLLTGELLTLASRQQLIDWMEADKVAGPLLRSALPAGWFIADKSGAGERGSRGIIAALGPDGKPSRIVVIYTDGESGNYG
The target in another assay is T3, ORF 73 (Human herpesvirus 8, UniProt O40947).
T3 sequence (O40947 whole entry): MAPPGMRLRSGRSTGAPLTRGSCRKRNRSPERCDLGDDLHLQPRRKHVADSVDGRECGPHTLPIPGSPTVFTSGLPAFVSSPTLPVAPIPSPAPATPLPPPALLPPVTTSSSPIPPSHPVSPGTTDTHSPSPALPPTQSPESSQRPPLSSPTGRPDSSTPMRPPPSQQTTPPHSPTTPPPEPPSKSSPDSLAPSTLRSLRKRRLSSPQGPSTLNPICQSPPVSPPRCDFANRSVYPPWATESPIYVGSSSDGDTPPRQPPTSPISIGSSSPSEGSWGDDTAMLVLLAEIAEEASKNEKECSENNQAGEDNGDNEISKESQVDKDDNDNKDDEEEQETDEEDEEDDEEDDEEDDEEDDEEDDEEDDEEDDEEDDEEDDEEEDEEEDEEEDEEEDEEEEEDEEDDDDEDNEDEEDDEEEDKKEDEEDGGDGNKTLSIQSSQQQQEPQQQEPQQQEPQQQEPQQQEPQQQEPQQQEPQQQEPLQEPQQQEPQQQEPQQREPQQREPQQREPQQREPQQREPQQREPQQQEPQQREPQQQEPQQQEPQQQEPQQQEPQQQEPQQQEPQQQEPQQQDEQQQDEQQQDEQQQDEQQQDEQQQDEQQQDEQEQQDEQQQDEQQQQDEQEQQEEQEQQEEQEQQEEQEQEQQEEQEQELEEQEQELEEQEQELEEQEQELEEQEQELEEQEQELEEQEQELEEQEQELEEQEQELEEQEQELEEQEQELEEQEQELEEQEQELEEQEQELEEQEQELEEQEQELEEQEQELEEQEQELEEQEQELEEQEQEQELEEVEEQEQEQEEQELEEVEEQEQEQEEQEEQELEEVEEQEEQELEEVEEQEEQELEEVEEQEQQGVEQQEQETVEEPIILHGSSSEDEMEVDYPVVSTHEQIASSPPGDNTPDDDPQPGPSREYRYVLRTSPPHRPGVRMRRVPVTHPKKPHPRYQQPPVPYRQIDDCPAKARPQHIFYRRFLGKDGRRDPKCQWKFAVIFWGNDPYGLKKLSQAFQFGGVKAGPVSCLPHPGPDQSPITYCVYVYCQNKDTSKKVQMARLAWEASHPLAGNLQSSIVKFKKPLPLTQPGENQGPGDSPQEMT
Kind of assay: inhibitors of C-LANA binding to LBS DNA, dose response, biochemical, fluorescence polarization, cherry-picked samples (AID 504725).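 Note: fluorescence polarization of a labeled DNA duplex reporting LANA DNA binding; potency is for inhibitors that block LANA binding to the DNA.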 Also noted: species or system Human gammaherpesvirus 8.

Assay [5] deals with T4, Insulin-degrading enzyme (Homo sapiens, UniProt P14735).
T4 sequence (P14735 whole entry): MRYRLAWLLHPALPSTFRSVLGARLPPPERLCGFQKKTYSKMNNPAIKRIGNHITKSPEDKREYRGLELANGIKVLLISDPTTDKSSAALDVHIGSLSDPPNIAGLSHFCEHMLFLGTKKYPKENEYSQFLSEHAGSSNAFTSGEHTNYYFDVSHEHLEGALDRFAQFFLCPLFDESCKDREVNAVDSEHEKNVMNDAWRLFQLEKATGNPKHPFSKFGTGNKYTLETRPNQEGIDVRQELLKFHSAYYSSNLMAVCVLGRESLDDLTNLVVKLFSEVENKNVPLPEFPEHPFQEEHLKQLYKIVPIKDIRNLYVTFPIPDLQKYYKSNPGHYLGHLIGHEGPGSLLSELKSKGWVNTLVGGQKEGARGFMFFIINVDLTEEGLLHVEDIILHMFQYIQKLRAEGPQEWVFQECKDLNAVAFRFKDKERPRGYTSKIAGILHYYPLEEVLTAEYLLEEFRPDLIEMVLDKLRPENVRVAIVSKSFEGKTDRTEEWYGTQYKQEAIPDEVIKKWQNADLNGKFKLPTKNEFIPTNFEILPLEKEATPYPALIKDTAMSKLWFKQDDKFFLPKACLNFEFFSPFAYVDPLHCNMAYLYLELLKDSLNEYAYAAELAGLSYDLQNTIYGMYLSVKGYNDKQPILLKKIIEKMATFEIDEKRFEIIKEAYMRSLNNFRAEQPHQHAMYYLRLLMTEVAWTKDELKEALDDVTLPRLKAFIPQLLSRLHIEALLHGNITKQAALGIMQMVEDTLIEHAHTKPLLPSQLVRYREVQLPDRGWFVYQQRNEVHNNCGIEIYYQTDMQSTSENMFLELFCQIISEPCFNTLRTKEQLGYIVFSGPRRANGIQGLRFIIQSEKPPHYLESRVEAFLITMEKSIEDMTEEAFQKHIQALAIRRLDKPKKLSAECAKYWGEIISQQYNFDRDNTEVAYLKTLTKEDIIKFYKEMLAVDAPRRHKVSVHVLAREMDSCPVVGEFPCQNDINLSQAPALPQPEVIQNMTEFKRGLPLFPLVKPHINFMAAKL
In words: activators of recombinant IDE enzyme, dose response, counter-screen for IDE activator project, biochemical, fluorescence polarization (AID 588681). Background: The purpose of a counterscreen is to sort out artefacts and off-target activity.

A further assay deals with Keap1/Nrf2 (Homo sapiens, UniProt Q14145). In words: Keap1-Nrf2 protein-protein interaction inhibitors, dose response, biochemical, fluorescence polarization, cherry-picked samples (AID 588683).
Chain of Keap1/Nrf2 (Q16236 whole entry): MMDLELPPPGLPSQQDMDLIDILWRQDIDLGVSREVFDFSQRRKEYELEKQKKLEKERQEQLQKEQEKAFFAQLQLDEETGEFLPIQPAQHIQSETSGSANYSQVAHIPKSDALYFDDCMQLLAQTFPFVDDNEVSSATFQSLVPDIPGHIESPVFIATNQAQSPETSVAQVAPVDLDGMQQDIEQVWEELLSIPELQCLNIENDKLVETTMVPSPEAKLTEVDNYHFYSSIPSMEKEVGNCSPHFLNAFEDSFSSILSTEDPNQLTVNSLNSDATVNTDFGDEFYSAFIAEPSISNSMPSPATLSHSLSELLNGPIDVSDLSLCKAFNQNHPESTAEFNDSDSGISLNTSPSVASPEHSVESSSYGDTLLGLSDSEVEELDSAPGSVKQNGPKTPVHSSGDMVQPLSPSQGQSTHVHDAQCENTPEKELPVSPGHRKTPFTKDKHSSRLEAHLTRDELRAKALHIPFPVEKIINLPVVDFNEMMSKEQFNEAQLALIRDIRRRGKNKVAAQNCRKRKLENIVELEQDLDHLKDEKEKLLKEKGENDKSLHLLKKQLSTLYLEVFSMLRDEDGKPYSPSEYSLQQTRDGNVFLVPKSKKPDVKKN
Chain of Keap1/Nrf2 (Q14145 whole entry): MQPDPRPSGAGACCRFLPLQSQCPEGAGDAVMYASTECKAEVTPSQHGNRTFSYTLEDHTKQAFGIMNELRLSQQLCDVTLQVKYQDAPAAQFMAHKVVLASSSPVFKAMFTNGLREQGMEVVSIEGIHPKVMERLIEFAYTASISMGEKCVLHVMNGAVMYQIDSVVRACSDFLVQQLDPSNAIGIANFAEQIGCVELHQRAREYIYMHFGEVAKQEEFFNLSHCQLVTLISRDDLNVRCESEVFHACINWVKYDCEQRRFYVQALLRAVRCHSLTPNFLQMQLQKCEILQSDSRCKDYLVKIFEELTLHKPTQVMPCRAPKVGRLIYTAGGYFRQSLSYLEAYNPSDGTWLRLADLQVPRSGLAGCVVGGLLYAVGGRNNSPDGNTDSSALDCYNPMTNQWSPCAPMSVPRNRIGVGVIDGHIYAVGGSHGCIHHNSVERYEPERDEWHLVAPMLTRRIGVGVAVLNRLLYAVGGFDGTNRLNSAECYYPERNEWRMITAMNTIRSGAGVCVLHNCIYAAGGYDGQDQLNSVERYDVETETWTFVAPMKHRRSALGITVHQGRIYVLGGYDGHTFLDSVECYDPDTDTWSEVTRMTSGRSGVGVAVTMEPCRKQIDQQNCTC
For assay [6], the target named is T4, Insulin-degrading enzyme. Kind of assay: activators of endogenous IDE in HEK cells, dose response, cell-based, fluorescence polarization (AID 588439). It is filed as functional.
In assay [7] the test system is HEK293. Kind of assay: HEK cell cytotoxicity by LDH release, dose response, cytotoxicity control for IDE activator project, fluorescence, HEK cells (AID 588440).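 Note: cytotoxicity by LDH release measuring loss of membrane integrity.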 The class given is functional, cell-based. Conditions: Homo sapiens. Background: LDH in the medium is a marker of cell lysis.
For assay [8], the system named is HEK293. In words: optical interference in Abeta FP readout, dose response, artefact control for IDE activator project, biochemical, fluorescence polarization (AID 588442). It is filed as functional, cell-based. The conditions noted are these: Homo sapiens.
A further assay in a line: cells. The class given is functional.
The nature of assay [9]: THP-1 cell cytotoxicity, dose response, cytotoxicity control, set 3 (AID 504852). It is filed as functional. The conditions noted are these: Mycobacterium tuberculosis.
The test system of the next assay is CHO-K1. Kind of assay: Counterscreen for antagonists of the orexin 1 receptor (OX1R; HCRTR1): Homogeneous time resolved fluorescence (HTRF)-based cell-based dose response assay to identify antagonists of the parental CHO-K1 cell line. [Related pubchem assays (depositor defined):AID434989, AID435008, AID463079, AID485270, AID492963, AID492964, AID492965, AID493232, AID504699, AID504701]. It is filed as functional. The conditions noted are these: Cricetulus griseus.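 Note: potency for inhibition of ATP-stimulated IP1 production as antagonists.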

The nature of assay [10]: Counterscreen for antagonists of the orexin 1 receptor (OX1R; HCRTR1): Fluorescence-based cell-based high throughput dose response assay to identify antagonists of the parental CHO cell line. [Related pubchem assays (depositor defined):AID434989, AID435008, AID463079, AID485270, AID492963, AID492964, AID492965, AID493232, AID504699, AID504701]. It is filed as functional.

Assay [11] deals with T5, Orexin/Hypocretin receptor type 1 (Homo sapiens, UniProt O43613). In words: Homogeneous Time Resolved Fluorescence (HTRF)-based cell-based high throughput dose response assay for antagonists of the orexin 1 receptor (OX1R; HCRTR1). [Related pubchem assays (depositor defined):AID434989, AID435008, AID463079, AID485270, AID492963, AID492964, AID492965, AID493232, AID504717, AID504718]. It is filed as functional.
T5 sequence (O43613 whole entry): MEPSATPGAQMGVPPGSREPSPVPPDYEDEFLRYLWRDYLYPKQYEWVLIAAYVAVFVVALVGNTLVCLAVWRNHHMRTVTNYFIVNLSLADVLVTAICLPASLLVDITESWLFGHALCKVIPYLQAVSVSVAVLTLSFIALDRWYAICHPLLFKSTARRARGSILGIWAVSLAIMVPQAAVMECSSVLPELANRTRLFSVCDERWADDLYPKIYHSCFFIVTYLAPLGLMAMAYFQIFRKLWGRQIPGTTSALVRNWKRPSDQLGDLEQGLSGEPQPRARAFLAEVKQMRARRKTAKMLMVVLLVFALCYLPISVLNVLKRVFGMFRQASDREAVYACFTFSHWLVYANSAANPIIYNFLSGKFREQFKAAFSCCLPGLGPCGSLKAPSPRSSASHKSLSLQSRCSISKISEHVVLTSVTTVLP

Assay [12] has as its target T5, Orexin/Hypocretin receptor type 1. Kind of assay: Fluorescence-based cell-based high throughput dose response assay for antagonists of the orexin 1 receptor (OX1R; HCRTR1). [Related pubchem assays (depositor defined):AID434989, AID435008, AID463079, AID485270, AID492963, AID492964, AID492965, AID493232, AID504717, AID504718]. It is filed as functional.
The target in assay [13] is T6, Orexin receptor type 2 (Homo sapiens, UniProt O43614). Kind of assay: Counterscreen assay for antagonists of the orexin 1 receptor (OX1R; HCRTR1): Fluorescence-based cell-based dose response assay for antagonists of the orexin 2 receptor (OX2R; HCRTR2), run by assay provider. The class given is functional.
T6 sequence (O43614 whole entry): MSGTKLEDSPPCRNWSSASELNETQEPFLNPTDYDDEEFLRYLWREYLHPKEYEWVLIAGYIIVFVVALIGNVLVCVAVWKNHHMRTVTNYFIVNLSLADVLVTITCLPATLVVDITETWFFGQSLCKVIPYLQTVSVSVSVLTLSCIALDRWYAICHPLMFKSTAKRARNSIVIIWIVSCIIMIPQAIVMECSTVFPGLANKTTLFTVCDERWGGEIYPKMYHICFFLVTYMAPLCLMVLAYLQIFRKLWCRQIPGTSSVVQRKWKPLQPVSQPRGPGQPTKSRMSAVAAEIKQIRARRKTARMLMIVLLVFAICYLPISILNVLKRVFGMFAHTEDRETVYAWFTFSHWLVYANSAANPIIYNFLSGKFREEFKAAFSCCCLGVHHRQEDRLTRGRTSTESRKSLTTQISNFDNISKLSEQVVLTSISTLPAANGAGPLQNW
For assay [14], the target named is T6, Orexin receptor type 2. In words: Counterscreen assay for antagonists of the orexin 1 receptor (OX1R; HCRTR1): Homogeneous Time Resolved Fluorescence (HTRF)-based cell-based dose response assay for antagonists of the orexin 2 receptor (OX2R; HCRTR2), run by assay provider. It is filed as functional.
Assay [15] has as its target Sphingosine 1-phosphate receptor 2 (Homo sapiens, UniProt O95136). Kind of assay: Late-stage fluorescence-based dose-response cell-based counterscreen assay to identify agonists of the Sphingosine 1-Phosphate Receptor 3 (S1P3): Sphingosine 1-Phosphate Receptor 2 (S1P2) agonist assay. The class given is functional.
For assay [16], the target named is Sphingosine 1-phosphate receptor 4 (Homo sapiens, UniProt O95977). In words: Late-stage fluorescence-based dose-response cell-based counterscreen assay to identify agonists of the Sphingosine 1-Phosphate Receptor 3 (S1P3): Sphingosine 1-Phosphate Receptor 4 (S1P4) agonist assay. It is filed as functional.
Chain of Sphingosine 1-phosphate receptor 4 (O95977 whole entry): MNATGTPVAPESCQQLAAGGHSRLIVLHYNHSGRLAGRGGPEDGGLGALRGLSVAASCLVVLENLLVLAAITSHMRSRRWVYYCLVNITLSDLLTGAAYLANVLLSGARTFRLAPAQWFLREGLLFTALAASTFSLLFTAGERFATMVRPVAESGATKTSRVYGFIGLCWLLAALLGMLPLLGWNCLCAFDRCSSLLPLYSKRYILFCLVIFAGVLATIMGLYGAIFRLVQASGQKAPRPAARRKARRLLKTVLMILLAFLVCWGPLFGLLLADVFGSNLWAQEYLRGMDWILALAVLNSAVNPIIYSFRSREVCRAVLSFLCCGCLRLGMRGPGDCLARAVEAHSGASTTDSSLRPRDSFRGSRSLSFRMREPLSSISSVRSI

Active and inactive are the calls of the source.

Chain of Sphingosine 1-phosphate receptor 2 (O95136 whole entry): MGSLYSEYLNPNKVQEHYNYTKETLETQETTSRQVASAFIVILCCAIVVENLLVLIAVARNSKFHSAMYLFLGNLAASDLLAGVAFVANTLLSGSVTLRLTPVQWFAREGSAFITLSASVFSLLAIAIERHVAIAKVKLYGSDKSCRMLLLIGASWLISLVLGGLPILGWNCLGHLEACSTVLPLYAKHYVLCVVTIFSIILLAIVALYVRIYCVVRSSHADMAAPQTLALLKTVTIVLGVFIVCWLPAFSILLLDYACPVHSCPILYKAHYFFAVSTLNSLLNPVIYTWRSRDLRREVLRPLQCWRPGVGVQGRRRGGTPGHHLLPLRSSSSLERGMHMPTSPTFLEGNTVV

For `O=C1c2cccc3c(O)ccc(c23)C(=O)N1c1ccc(Cl)cc1`, the EC50 in assay [1] is 7.11 µM (inconclusive); in assay [2] it was 289 nM (inconclusive); at Insulin-degrading enzyme [5], > 54.7 µM (inactive); at Insulin-degrading enzyme [6] it was > 54.7 µM (inactive); in the assay on HEK293 [8], > 54.7 µM (inactive). In addition, the IC50 at Beta-lactamase [3] was 19.8 µM (inactive); on Beta-lactamase [4], 7.95 µM (active); in the assay with HEK293 [7], > 89.2 µM (inactive). For the same compound, the AC50 on ORF 73 is 1.93 µM (active); on Keap1/Nrf2 it was 2.53 µM (active).
Take `Cc1ccc(NC(=O)COC(=O)CCc2c[nH]c3ccccc23)cc1[N+](=O)[O-]`: the IC50 in “cells” is 1.84 µM (active). Moreover, the CC50 in assay [9] was > 100 µM (active).
For `Cc1ccc(C)n1-c1nn(S(=O)(=O)c2cccc3cccnc23)c2cccc(F)c12`, the IC50 in the assay with CHO-K1 was > 66.2 µM (inactive); in assay [10], > 49.8 µM (inactive); in assay [11], 1.93 µM (active); in [12], 45 µM (inactive); on Orexin receptor type 2 [13], 29.3 µM (inactive); on Orexin receptor type 2 [14], > 50 µM (inactive).
Regarding `CC1CCCCC1N(C(=O)c1cc(C2CC2)on1)C1CCCC1` (stereo not given), the EC50 in [15] and in [16] was > 50 µM (inactive) in each case.

For the origin of these results see ChEMBL document CHEMBL1201862, “PubChem BioAssay data set” (2004).
